Test results taken from patent publication US20100009970A1, “COMPOSITIONS AND METHODS FOR TREATMENT OF VIRAL DISEASES” (Combinatorx (Singapore) Pte. Ltd., priority 2008, published 2010).
Read-outs that look alike come from different tables or passages of the source.

Legend:
in vitro = conditions: human
[1] = system: Huh7 cells expressing a subgenomic RNA replicon of Con1 (genotype 1b) sequence origin; experiment: microbe, parasite or virus in culture; conditions: Hepatitis C virus
[2] = Huh-7, read-out: IC50 (uM) [SG]
[3] = Huh-7, read-out: Max Effect@CC30 (inhibition)

| SMILES | CC50 (in vitro; CC50 (uM) [SG]) [µM] | IC50 [1, 2] [µM] | Emax [1, 3] [%] | IC90 ([1]; Huh-7) [µM] | CC50 (in vitro; CC50 (uM)) [µM] | IC50 ([1]; Huh-7) [µM] | Emax ([1]; GETYPE1B, Huh-7, 72 h, read-out: Max Effect @CC30 (inhibition)) [%] | IC50 ([1]; Huh-7, 72 h) [µM] |
| --- | --- | --- | --- | --- | --- | --- | --- | --- |
| CSc1ccc(Oc2ccc(C(N)=O)cc2CN(C)C)cc1C [Compound 10, 3-((dimethylamino)methyl)-4-(3-methyl-4-(methylthio)phenoxy)benzamide] | > 50 | 26.9 | 80.7 | – | – | – | – | – |
| CSc1ccc(Oc2ccc(S(N)(=O)=O)cc2CN(C)CCO)cc1C [Compound 2, 3-(((2-hydroxyethyl)(methyl)amino)methyl)-4-(3-methyl-4-(methylthio)phenoxy)benzenesulfonamide] | > 50 | 5.58 | – | 20.1 | – | – | – | – |
| CSc1ccc(Oc2ccc(S(N)(=O)=O)cc2CN2CCC[C@H]2CO)cc1C [Compound 103, (S)-3-((2-(hydroxymethyl)pyrrolidin-1-yl)methyl)-4-(3-methyl-4-(methylthio)phenoxy)benzenesulfonamide] | > 50 | 6.88 | – | 17.6 | – | – | – | – |
| CN(C)[C@H]1CC[C@@H](c2ccc(Cl)c(Cl)c2)c2ccc(C(=O)NC3CCC3)cc21 [(5S,8S)—N-cyclobutyl-5-(3,4-dichlorophenyl)-8-(dimethylamino)-5,6,7,8-tetrahydronaphthalene-2-carboxamide] | 13.4 | 5.78 | – | – | – | – | – | – |
| CN[C@H]1CC[C@@H](c2ccc(Cl)c(Cl)c2)c2ccc(CSC)cc21 [Sertraline A-Ring Methylsulfide, (1S,4S)-4-(3,4-dichlorophenyl)-N-methyl-7-(methylthiomethyl)-1,2,3,4-tetrahydronaphthalen-1-amine] | 6.18 | 4.18 | 14.8 | – | – | – | – | – |
| CSc1ccc(Oc2ccc(S(N)(=O)=O)cc2CNC[C@H](C)O)cc1C [Compound 69, (S)-3-((2-hydroxypropylamino)methyl)-4-(3-methyl-4-(methylthio)phenoxy)benzenesulfonamide] | > 50 | 3.54 | – | 10.4 | – | – | – | – |
| CC(=O)N(C)c1ccc2c(c1)[C@@H](N(C)C)CC[C@H]2c1ccc(Cl)c(Cl)c1 | 14.6 | 3.79 | 91.7 | – | – | – | – | – |
| CSc1ccc(Nc2ccc(S(N)(=O)=O)cc2CN(C)C)cc1C [Compound 108, 3-((dimethylamino)methyl)-4-(3-methyl-4-(methylthio)phenylamino)benzensulfonamide] | 44.9 | 2.64 | – | 17 | – | – | – | – |
| CN[C@H]1CC[C@@H](c2ccc(Cl)c(Cl)c2)c2ccc(N(C)C)cc21 [Sertraline A-Ring N,N-Dimethylamine, (1S,4S)-4-(3,4-dichlorophenyl)-N1,N7,N7-trimethyl-1,2,3,4-tetrahydronaphthalene-1,7-diamine] | 6.22 | 3.52 | 35.1 | 5.82 | 6.22 | 3.52 | – | – |
| N[C@H]1CC[C@@H](c2ccc(Cl)c(Cl)c2)c2ccccc21 [(1S,4S)-Desmethyl Sertraline, (1S,4S)-4-(3,4-dichlorophenyl)-1,2,3,4-tetrahydronaphthalen-1-amine] | 8.98 ± 0.1 | 7.5 | 0 | – | 8.98 ± 0.1 | – | 0 | 7.5 ± 0.4 |
| CSc1ccc(Oc2ccc(S(N)(=O)=O)cc2CNCCO)cc1C [Compound 1, 3-((2-hydroxyethylamino)methyl)-4-(3-methyl-4-(methylthio)phenoxy)benzenesulfonamide] | > 50 | 4.31 | – | 15 | – | – | – | – |
| CNCc1cc([N+](=O)[O-])ccc1Oc1ccc(SC)c(C)c1 [Compound 50, N-methyl-1-(2-(3-methyl-4-(methylthio)phenoxy)-5-nitrophenyl)methanamine] | 26.1 | 6.04 | 90 | 11.4 | – | – | – | – |
| CSc1ccc(Oc2ccc(S(N)(=O)=O)cc2CN(C)C[C@@H](C)O)cc1C [Compound 70, (R)-3-(((2-hydroxypropyl)(methyl)amino)methyl)-4-(3-methyl-4-(methylthio)phenoxy)benzenesulfonamide] | > 50 | 7.01 | – | 23.9 | – | – | – | – |
